Test results published in patent US11406645B2, “Acetamide thienotriazolodiazepines and uses thereof” (Dana-Farber Cancer Institute, Inc., priority 2015, dated 2022).

assay: Pharmacokinetics in male CD1 mice, oral administration (whole blood); settings: oral 10 mg/kg, N=3, whole blood
Procedure: Pharmacokinetic parameters were determined by administration of a candidate bromodomain inhibitor to male CD1 mice. Intravenous doses were delivered at 5 mg/kg, and oral doses at 10 mg/kg (N=3). […] The compound concentration in mouse blood was monitored over 24-hour time period to check the compound concentration in blood at 5 min, 30 min, 1 hour, 2 hours, 6 hours, 12 hours, and 24 hour via a series bleeding.

SMILES	Tmax
Cc1sc2c(c1C)C(c1ccc(Cl)cc1)=N[C@@H](CC(=O)OC(C)(C)C)c1nnc(C)n1-2 [JQ1]	15 min

assay: not given; settings: male, CD1, mouse, in vivo

SMILES	F
Cc1sc2c(c1C)C(c1ccc(Cl)cc1)=N[C@@H](CC(=O)NCCCN1CCCC1)c1nnc(C)n1-2 [Compound 604]	7%
Cc1sc2c(c1C)C(c1ccc(Cl)cc1)=N[C@@H](CC(=O)NCC1CCN(CCN(C)C)CC1)c1nnc(C)n1-2 [Compound 601]	4%
Cc1sc2c(c1C)C(c1ccc(Cl)cc1)=N[C@@H](CC(=O)N1CCn3c(nnc3C(F)(F)F)C1)c1nnc(C)n1-2 [Compound 605]	6%
Cc1sc2c(c1C)C(c1ccc(Cl)cc1)=N[C@@H](CC(=O)N1CCC(N3CCCCC3)CC1)c1nnc(C)n1-2 [Compound 603]	20%
Cc1sc2c(c1C)C(c1ccc(Cl)cc1)=N[C@@H](CC(=O)NCCCN1CCC(N3CCCCC3)CC1)c1nnc(C)n1-2 [Compound 602]	2%
